This is an account of results in US9186339B2, “Use of transcriptome modifying agents and chemotherapy or radiotherapy against cancer” (UNIVERSIDAD NACIONAL AUTONOMA DE MEXICO, priority 2005, dated 2015).

The subject of one series is HeLa cells. As to the kind of experiment: MTT cell viability assay, chemotherapeutic agent plus composition. Format: cell-based. The settings on record: for viability reduction: chemotherapeutic agent plus hydralazine 10 μM and magnesium valproate 1 mM, viability on day 4. The protocol: With this objective, three drugs were selected that are representative of his class: alkylating agents as cisplatin, antibiotic as doxorrubicin, antimetabolite as gemcitabine. The cells were plated in 96-well plates (Falcon Becton Dickinson, Franklin Lakes, N.J.) at a density of 1.5-2.5×10^3 cells/well in 0.1 ml of complete media. The following day the cells were treated with the chemotherapeutic agent at the concentration indicated in FIGS. 2A, 2B y 2C plus hydralazine at 10 μM and valproic acid or magnesium valproate at 1 mM. On the next day, the media containing the drugs was removed and fresh hydralazine and magnesium valproate were added at same concentration for another additional 48 hours. On the following day (day 4) cell viability was measured using an MTT assay. Briefly, 50 μl of MTT reagent in phosphate buffered solution were added to each well. […] Thereafter it is read spectrophotometrically on a ELISA reader. All the assays were carried out in triplicate. The cytotoxic effect of each treatment was expressed in the percentage of cell viability relative to the untreated control (% control) which is defined as [(A570nm treated cells)/A570nm untreated cells)]×100.
On the technique in general: Formazan colour is commonly taken as a measure of viable cells.

Series [1] relates to sarcoma HT1080 cellular line tumors. Briefly: HT1080 sarcoma model in immunodeficient mice. Format: in vivo, athymic mice. The protocol:
Once the capacity of hydralazine and valproic acid or a salt thereof such as magnesium valproate to alter the expression génica in the patients' tumors was assessed, we investigate if the composition of these transcriptome modifying agents increased the antitumoral effect of the chemotherapy in a model of sarcoma in immunodeficient mice. With this goal, groups of 6 female athymic mice were studied, which were injected with 6 million cells of the sarcoma HT1080 cellular line. Once the tumors were formed, the animals were treated systemically with hydralazine and valproic acid or a salt thereof such as magnesium valproate with doses equivalent to those used in the patients. The groups of treatment were as follows: 1) control treated with saline solution, 2) treated weekly with adriamycin, 3) treated with the composition of hydralazine and valproato for 7 days followed by the same weekly treatment with adriamycin. […] This phenomenon occurs commonly in the treatment of the cancer in the patients, where often an entire or almost entire antitumoral response is observed to relapse later. The composition of the present invention therefore might induce extended or complete remissions of the tumors.

The conditions of series [2]: 50-150 mg/day for 10 days, cancer patients. The protocol:
(§1) Whit this goal, hydralazine was administered to groups of 4 patients each group at doses of: 1) 50 mg/day, 2) 75 mg/day, 3) 100 mg/day and 4) 150 mg/day for 10 days. Biopsies and peripheral blood samples were taken before commencing treatment and at day 11. The state of pre- and post-treatment methylation was analyzed for the promoters of the following genes: APC, MGMT; ER, GSTP1, DAPK, RARβ, FHIT and p16 as well as the state of expression of their messengers by RT-PCR. Also the state of methylation of the gene subject to parental unactivation H19, and a genomic clone which normally is found methylated was evaluated, as well as the global content of methylated citokines in the genome. The toxicity to hydralazine was evaluated using the escale from the U.S. National Cancer Institute (CTC NCI). […] FIG. 3A.

Series [3] concerns expression of suppressive genes (APC, MGMT, ER, GSTP1, DAPK, RARβ, FHIT, p16). The protocol: as §1
For series [4], the system named is promoters of APC, MGMT, ER, GSTP1, DAPK, RARβ, FHIT and p16. The settings on record: post-treatment biopsies. Here is the method:
as §1

Series [5] is described as follows: Clinical study of magnesium valproate: toxicity. Format: in vivo, human. The settings on record: 20, 30, 40 mg/Kg for 5 days. The protocol: (§2) Twelve patients with this cancer of recent diagnosis and without previous treatment received the following doses of magnesium valproate in groups of 4 patients. Group 1, 20 mg/Kg, Group 2, 30 mg/kg, Group 3, 40 mg/Kg. A biopsy of the tumor and a blood sample were taken before the treatment and on the following day (day 6) since valproic acid or a salt thereof such as magnesium valproate was administered for 5 days in divided doses every 8 hours. The hyperacetylation of Histone H3 was analyzed in the samples and histone H4 in the tumor by Western blot, as well as the activity of histone deacetylases in nuclear extracts of the tumor using a calorimetric essay, as well as the levels of valproic acid in serum. The level of expression of the genes p21 and CAR was also analyzed in the pos-treatment biopsies. The toxicity of the treatment was recorded at the end of the cycle.

The test system of another series is p21. Briefly: Clinical study of magnesium valproate: gene expression in post-treatment biopsies. It counts as in vivo, human. The following applies: FIG. 8. The protocol:
as §2

For series [6], the system named is Histone H3 and histone H4. Briefly: Clinical study of magnesium valproate: histone hyperacetylation in tumor by Western blot. Format: in vivo, human. The following applies: of 12 patients, after treatment. Here is the method: as §2
On the technique in general: In western blotting, separated proteins are transferred to a membrane and probed.

The subject of a further series is histone deacetylases. As to the kind of experiment: Clinical study of magnesium valproate: histone deacetylase activity in nuclear extracts of the tumor. It counts as in vivo, human. The protocol: as §2

Read-outs that look alike come from different tables or passages of the source.

As to `COc1cccc2c1C(=O)c1c(O)c3c(c(O)c1C2=O)C[C@@](O)(C(=O)CO)C[C@@H]3O[C@H]1C[C@H](N)[C@H](O)[C@H](C)O1` [adriamycin], the viability reduction in the series with HeLa cells was determined as 27%. In addition, the “tumor re-growth after 3 weeks” value in [1] (weekly adriamycin alone, or composition for 7 days followed by weekly adriamycin, FIG. 9) was “the tumors grow again”. Moreover, the antitumoral effect result in series [1] (weekly adriamycin, 3 weeks after treatment) is on record as “almost complete antitumoral effect”.

Regarding `N.N.[Cl][Pt][Cl]` [cisplatin], the viability reduction in the series with HeLa cells is on record as 37%. Moreover, the IC50 with HeLa cells (read-out: inhibitory concentration 50 (IC50)) was 12 µM.

As to `Nc1ccn([C@@H]2O[C@H](CO)[C@@H](O)C2(F)F)c(=O)n1` [gemcitabine], the viability reduction with HeLa cells came out at 37%.

Take `NNc1nncc2ccccc12` [hydralazine, 1-hydrazinophthalazine]: the tolerability entry in series [2] was “well tolerated”. Moreover, the undesirable effects registered result in series [2] was “nausea, sickness, fatigue, headache and palpitations”. Further, the “effect on genic expression in patients with cancer” value in series [3] (dose between 50 and 150 mg) was “effective to alter the genic expression”. Moreover, the “cases demethylated post-treatment that re-expressed the gene” value in series [3] (of the 12 informative cases) is recorded as 9 cases. Moreover, the percentage of demethylation stood at 40% in [4] (hydralazine 50 mg/day for 10 days), 52% in [4] (hydralazine 75 mg/day for 10 days), 43% in series [4] (hydralazine 100 mg/day for 10 days) and 32% in [4] (hydralazine 150 mg/day for 10 days). For the same molecule, the “frequency of demethylation, p16” value in series [4] (2 out of 3) is 67%. Moreover, the “frequency of demethylation, MGMT” value in [4] (2 out of 13 samples) stood at 15%.

`CCCC(CCC)C(=O)O` [magnesium valproate, 2-propylpentanoic acid]: the tolerability result in [5] is reported as “well tolerated”. Also, the “patients with Grade 2 drowsiness” value in series [5] (of 12 patients) is “nine”. In addition, in the series on p21, the “expression of p21” value is recorded as “increases its expression”. In addition, in series [6], the “patients with hyperacetylation in both histones” value is on record as “six”, the “patients with hyperacetylation of H3” value is reported as “nine” and the “patients with hyperacetylation of H4” value is “seven”. In addition, in the series on histone deacetylases, the “patients with no changes in activity of histone deacetylases” value is “two”. Further, the “patients in whom activity of histone deacetylases diminished” value with histone deacetylases (two-tailed t test p<0.0264) came out at 8 patients.
